The target of data set [1] is T1, hormone-sensitive lipase (HSL) (Rattus norvegicus, UniProt P15304).
T1 construct: Isolated rat fat cells were obtained from epididymal adipose tissue; from tissue; host or cells: rat epididymal adipose tissue (isolated fat cells, Wistar rats)
T1 sequence (P15304 1-768 isoform P15304-2): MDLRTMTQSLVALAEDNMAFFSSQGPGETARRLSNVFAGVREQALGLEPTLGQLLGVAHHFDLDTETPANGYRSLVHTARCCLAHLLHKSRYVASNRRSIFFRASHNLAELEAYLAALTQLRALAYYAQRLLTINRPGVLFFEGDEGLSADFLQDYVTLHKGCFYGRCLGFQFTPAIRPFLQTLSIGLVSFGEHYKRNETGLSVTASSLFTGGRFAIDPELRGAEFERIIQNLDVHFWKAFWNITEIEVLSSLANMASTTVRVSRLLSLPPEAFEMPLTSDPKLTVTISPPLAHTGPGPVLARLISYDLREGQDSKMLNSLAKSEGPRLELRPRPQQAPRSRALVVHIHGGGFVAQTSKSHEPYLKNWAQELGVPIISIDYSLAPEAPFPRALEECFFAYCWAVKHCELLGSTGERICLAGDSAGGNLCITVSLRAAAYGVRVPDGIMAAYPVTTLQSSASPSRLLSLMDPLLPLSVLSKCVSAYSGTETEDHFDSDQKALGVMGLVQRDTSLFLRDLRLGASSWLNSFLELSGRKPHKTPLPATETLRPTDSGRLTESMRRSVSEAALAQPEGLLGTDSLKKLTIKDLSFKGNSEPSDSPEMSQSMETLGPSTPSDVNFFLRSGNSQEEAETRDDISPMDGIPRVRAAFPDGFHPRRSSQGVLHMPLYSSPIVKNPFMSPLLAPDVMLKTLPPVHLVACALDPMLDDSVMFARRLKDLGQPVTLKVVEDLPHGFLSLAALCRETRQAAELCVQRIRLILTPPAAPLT
In words: HSL enzyme assay: [3H]trioleoylglycerol hydrolysis by partially purified HSL. Type of data set: biochemical. The protocol:
The effect of the compounds of the invention on HSL was tested using the following enzyme assay system:
Preparation of Partially Purified HSL:
The fat cells from 10 rats were washed three times by flotation with 50 ml each time of homogenization buffer ([…] tris/HCl, pH 7.4, 0.25 M sucrose, 1 mM EDTA, 1 mM DTT, 10 μg/ml leupeptin, 10 μg/ml antipain, 20 μg/ml pepstatin) and finally taken up in 10 ml of homogenization buffer. The fat cells were homogenized in a Teflon-in-glass homogenizer (Braun-Melsungen) by 10 strokes at 1500 rpm and 15° C. The homogenate was centrifuged (Sorvall SM24 tubes, 5000 rpm, 10 min, 4° C.). The subnatant between the fatty layer at the top and the pellet was removed and the centrifugation was repeated. The subnatant resulting therefrom was recentrifuged (Sorvall SM24 tubes, 20000 rpm, 45 min, 4° C.). […] After the mixture had been incubated at 4° C. for 60 min (shaking at 15-min intervals), it was centrifuged (Sorvall SM24 tubes, 3000 rpm, 10 min, 4° C.). The supernatant was adjusted to pH 5.2 by adding glacial acetic acid and incubated at 4° C. for 30 min. The precipitates were collected by centrifugation (Sorvall SS34, 12000 rpm, 10 min, 4° C.) and suspended in 2.5 ml of 20 mM tris/HCl, pH 7.0,1 mM EDTA, 65 mM NaCl, 13% sucrose, 1 mM DTT, 10 μg/ml leupeptin/pepstatin/antipain. The suspension was dialyzed against 25 mM tris/HCl, pH 7.4, 50% glycerol, 1 mM DTT, 10 μg/ml leupeptin, pepstatin, antipain at 4° C. overnight and then loaded onto a hydroxy apatite column (0.1 g per 1 ml of suspension, equilibrated with 10 mM potassium phosphate, pH 7.0, 30% glycerol, 1 mM DTT). The column was washed with four volumes of equilibration buffer at a flow rate of 20 to 30 ml/h. The HSL was eluted with one volume of equilibration buffer containing 0.5 M potassium phosphate, and then dialyzed (see above) and concentrated 5- to 10-fold by ultrafiltration (Amicon Diaflo PM 10 filter) at 4° C. The partially purified HSL can be stored at −70° C. for 4 to 6 weeks.
To prepare the substrate, 25-50 μCi of [^3H]trioleoylglycerol (in toluene), 6.8 μmol of unlabeled trioleoylglycerol and 0.6 mg of phospholipids (phosphatidylcholine/phosphatidylinositol 3:1 w/v) were mixed, dried with N2 and then taken up in 2 ml of 0.1 M KPi (pH 7.0) by ultrasonic treatment (Branson 250, microtip, setting 1-2, 2×1 min at 1-min intervals). After addition of 1 ml of KPi and renewed ultrasonic treatment (4×30 sec on ice in 30-sec intervals), 1 ml of 20% BSA (in KPi) was added (final concentration of trioleoylglycerol 1.7 mM). For the reaction, 100 μl of substrate solution were pipetted into 100 μl of HSL solution (HSL prepared as above, diluted in 20 mM KPi, pH 7.0, 1 mM EDTA, 1 mM DTT, 0.02% BSA, 20 μg/ml pepstatin, 10 μg/ml leupeptin) and incubated at 37° C. for 30 min. […] After phase separation, one equivalent of the upper phase (1 ml) was removed and the radioactivity was determined by liquid scintillation measurement.
Substances were normally tested in four independent mixtures. The inhibition of the HSL enzymatic activity by a test substance was determined by comparison with an uninhibited control reaction. The IC50 was calculated via an inhibition plot with at least 10 concentrations of the test substance. The data was analyzed using the software package GRAPHIT, Elsevier-BIOSOFT.

[2] abbreviates: partially purified HSL from rat fat cells, [3H]trioleoylglycerol substrate, 37° C., 30 min, read-out: IC50.

Counter-ions that a name gives are not always drawn. Like-named read-outs stand apart in the source and are kept apart here.

“5-Methoxy-3-[3-[(3-trifluoromethylphenoxy)benzylamino]phenyl]-3H-[1,3,4]oxadiazol-2-one trifluoroacetate [Example 166]”: the half-inhibitory concentration (IC50) in data set [1] (setting [2]) was found to be 200 nM.
`COc1nn(-c2cccc(OCc3ccc(F)cc3)c2[N+](=O)[O-])c(=O)o1` [Example 22, 5-Methoxy-3-(3-(4-fluorobenzyloxy)-2-nitrophenyl)-3H-(1,3,4)oxadiazol-2-one] returned a melting point of 99 °C. Besides, in data set [1] (setting [2]), the 50% inhibitory concentration (IC50) worked out at 1000 nM.
As to `COc1nn(-c2ccc(N)c(C)c2)c(=O)o1` [Example 28, 5-Methoxy-3-(4-amino-3-methylphenyl)-3H-(1,3,4)oxadiazol-2-one], the melting point is 114 °C. Moreover, the IC50 in data set [1] (setting [2]) amounted to 6000 nM.
For the compound `COc1nn(-c2ccc(NC(=O)Cc3ccc(Cl)cc3)cc2)c(=O)o1` [Example 30, 5-Methoxy-3-(4-(4-chlorophenylacetylamino)phenyl)-3H-(1,3,4)oxadiazol-2-one], the IC50 in data set [1] (setting [2]) was 1000 nM.
In turn, `CCCCCCCC(=O)Nc1ccc(-n2nc(OC)oc2=O)cc1C` [Example 32, 5-Methoxy-3-(4-octanoylamino-3-methylphenyl)-3H-(1,3,4)oxadiazol-2-one] registered a melting point of 110 °C. The IC50 in data set [1] (setting [2]) was found to be 3000 nM.
`CCCCCCCc1ccc(C(=O)Nc2ccc(-n3nc(OC)oc3=O)cc2)cc1` [Example 33, 5-Methoxy-3-(4-(4-heptylbenzoylamino)phenyl)-3H-(1,3,4)oxadiazol-2-one] gave a melting point of 155 °C. Also, in data set [1] (setting [2]), the IC50 came to 200 nM.
In turn, `CCCCc1ccc(S(=O)(=O)Nc2ccc(-n3nc(OC)oc3=O)cc2)cc1` [Example 34, 5-Methoxy-3-(4-(4-butylphenylsulfonylamino)phenyl)-3H-(1,3,4)oxadiazol-2-one] registered a melting point of 135 °C. In data set [1] (setting [2]), the IC50 was found to be 1000 nM.
On the same counts, the results for `COc1nn(-c2ccc(NS(=O)(=O)c3ccc(Cl)cc3)c(C)c2)c(=O)o1` [Example 37, 5-Methoxy-3-(4-(4-chlorophenylsulfonylamino)-3-methylphenyl)-3H-(1,3,4)oxadiazol-2-one] are 147 °C and 1000 nM.
In the same order, the values of `COc1nn(-c2ccc(NS(=O)(=O)c3cccc4ccccc34)c(C)c2)c(=O)o1` [Example 38, 5-Methoxy-3-(4-(1-naphthylsulfonylamino)-3-methylphenyl)-3H-(1,3,4)oxadiazol-2-one] are 123 °C and 1000 nM.
Turning to `COc1nn(-c2ccc(NC(=O)OCc3ccccc3)c(C)c2)c(=O)o1` [Example 41, 5-Methoxy-3-(4-(benzyloxycarbonylamino)-3-methylphenyl)-3H-(1,3,4)oxadiazol-2-one], the IC50 in data set [1] (setting [2]) is 100 nM.
On to `COc1nn(-c2ccc(-n3c(C)ccc3C)c(C)c2)c(=O)o1` [Example 54, 5-Methoxy-3-(4-(2,5-dimethylpyrrol-1-yl)-3-methylphenyl)-3H-(1,3,4)oxadiazol-2-one], for which the IC50 in data set [1] (setting [2]) worked out at 1000 nM.
On the same count and under the same terms, the value for `COc1nn(-c2cccc(NCc3ccccc3)c2)c(=O)o1` [Example 58, 5-Methoxy-3-(3-benzylaminophenyl)-3H-(1,3,4)oxadiazol-2-one] was 800 nM; that for `COc1nn(-c2ccc(NC(=O)OCc3ccccc3)c(OCc3ccc(F)cc3)c2)c(=O)o1` [Example 60, 5-Methoxy-3-(3-(4-fluorobenzyloxy)-4-benzyloxycarbonylaminophenyl)-3H-(1,3,4)oxadiazol-2-one] was 200 nM.
Take `COc1nn(-c2ccc(NC(=O)c3ccc(C(C)(C)C)cc3)cc2)c(=O)o1` [Example 69, 5-Methoxy-3-(4-(4-t-butylbenzoylamino)phenyl)-3H-(1,3,4)oxadiazol-2-one]: the IC50 in data set [1] (setting [2]) worked out at 30 nM.
On the same count and under the same terms, the value for `COc1nn(-c2ccc(NS(=O)(=O)c3ccc(OC)c(OC)c3)cc2)c(=O)o1` [Example 92, 3,4-Dimethoxy-N-[4-(5-methoxy-2-oxo-[1,3,4]oxadiazol-3-yl)-phenyl]benzenesulfon-amide] was 250 nM.
With `COc1nn(-c2ccc(NC(=O)c3ccccc3F)cc2)c(=O)o1` [Example 97, 2-Fluoro-N-[4-(5-methoxy-2-oxo-[1,3,4]oxadiazol-3-yl)phenyl]-benzamide], the IC50 in data set [1] (setting [2]) stood at 30 nM.
The same measure, in the same setting: the value for `CCCCCCCCCCC(=O)Nc1ccc(-n2nc(OC)oc2=O)cc1` [Example 107, Undecanoic acid [4-(5-methoxy-2-oxo-[1,3,4]oxadiazol-3-yl)phenyl]amide] was 120 nM; that for `COc1nn(-c2ccc(NC(=O)CCCC(=O)c3ccccc3)cc2)c(=O)o1` [Example 116, 5-Oxo-5-phenylpentanoic acid [4-(5-methoxy-2-oxo-[1,3,4]-oxadiazol-3-yl)phenyl]amide] was 100 nM.
The same measure, in the same setting: next, `COc1nn(-c2cccc(NC(=O)Nc3c(OC)cccc3OC)c2)c(=O)o1` [Example 128, 1-(2,6-Dimethoxyphenyl)-3-[3-(5-methoxy-2-oxo-[1,3,4]oxadiazol-3-yl)phenyl]urea]: 600 nM.
In turn, `COc1nn(-c2ccc(NCc3ccc(C#N)cc3)cc2)c(=O)o1` [Example 130, 4-[[4-(5-Methoxy-2-oxo-[1,3,4]oxadiazol-3-yl)phenylamino]methyl]-benzonitrile tri-fluoroacetate] registered an IC50 in data set [1] of 500 nM.
On to `COc1nn(-c2ccc(NCc3ccc(OCc4ccccc4)cc3)cc2)c(=O)o1` [Example 136, 3-[4-(4-Benzyloxybenzylamino)phenyl]-5-methoxy-3H-[1,3,4]oxadiazol-2-one trifluoroacetate], for which the IC50 in data set [1] (setting [2]) was determined as 500 nM.
Same read-out and setting: next, `COc1nn(-c2ccc(NCC3CCCCC3)cc2)c(=O)o1` [Example 139, 3-[4-(Cyclohexylmethylamino)phenyl]-5-methoxy-3H-[1,3,4]oxadiazol-2-one]: 400 nM.
On the same count and under the same terms, the value for `CCCCCCOc1ccc(CNc2ccc(-n3nc(OC)oc3=O)cc2)cc1` [Example 142, 3-[4-(4-Hexyloxybenzylamino)phenyl]-5-methoxy-3H-[1,3,4]oxadiazol-2-one trifluoroacetate] was 200 nM; that for `CCOc1ccccc1NC(=O)Nc1ccc(-n2nc(OC)oc2=O)cc1` [Example 152, 1-(2-Ethoxyphenyl)-3-[4-(5-methoxy-2-oxo-[1,3,4]oxadiazol-3-yl)phenyl]urea] was 200 nM; that for `CCCCCC=CCCCNc1cccc(-n2nc(OC)oc2=O)c1` [Example 171, 3-(3-Dec-4-enylaminophenyl)-5-methoxy-3H-[1,3,4]oxadiazol-2-one trifluoroacetate] was 600 nM.

The values above are taken from US6369088B2, “Substituted 3-phenyl-5-alkoxy-1,3,4-oxadiazol-2-ones, their preparation and their use as pharmaceuticals” (Aventis Pharma Deutschland GmbH, priority 2000, dated 2002).
